The values below come from patent US20250042912A1, “NOVEL NON-FLUORINATED QUINOLONE COMPOUND AND USE THEREOF” (priority 2021, published 2025).

In brackets after ≈: the same amount, converted by molar mass.

Usually MIC stands for the least concentration at which growth counts as inhibited.

Assay [1] has as its system Staphylococcus epidermidis ATCC 12228. Description: Minimum inhibitory concentration (MIC) assay, Staphylococcus epidermidis ATCC 12228. Conditions: ATCC12228, aerobic culture 35+/-2°C, 16 to 20 hours, read with naked eyes. Format: cell-based. How it is done:
On the day of the experiment, the compound in the flask was dissolved in 100% DMSO until the concentration of mother liquor was 0.4 mg/mL. If the mother liquor was not used on the same day, it was stored at −80° C. for future use.
The compound mother liquor and standard antibiotics were subjected to 2-fold gradient dilution with corresponding solvents on a 96-microwell plate (V-bottom) to obtain 100× working solutions (Well 1 to Well 7) in sequence. Among them, the concentrations of the compound were 400 μg/mL, 200 μg/mL, 100 μg/mL, 50 μg/mL, 25 μg/mL, 12.5 μg/mL, 6.25 μg/mL, and 3.125 μg/mL. 100% DMSO was used as growth control (Well 8). As such, the compound motherplate was obtained.
One day before the experiment, aerobic bacteria (Staphylococcus epidermidis) stored in a cryogenic tube at −80° C. were scribed on an MHA (Cation-adjusted Mueller-Hinton agar) plate. The aerobic bacteria were placed in a 35+/−2° C. incubator for 18-24 hours of aerobic cultivation.
On the day of the experiment, the plate was taken out, clones were picked from the plate and suspended in physiological saline. Then, the turbidity of the bacterial suspension (containing 1.0-2.0×10^8 CFU/mL) was adjusted to OD600=0.2 by a turbidity meter. Then, the adjusted bacterial suspension was diluted to an appropriate concentration with the assay culture medium: about 5×10^5 CFU/mL for aerobic bacteria, and about 1×10^6 CFU/mL for anaerobic bacteria. As such, the inoculating solution was obtained.
2 μl of 2-fold series dilution of 100× high-concentration working solution was transferred from a compound mother plate (prepared in step 1) to a round-bottom 96-well plate, and then 198 μL of bacterial inoculating solution (prepared in step 2) was added to each well to obtain an MIC assay plate. Therefore, the final assay concentrations of the compound were 4 μg/mL, 2 μg/mL, 1 μg/mL, 0.5 μg/mL, 0.25 μg/mL, 0.125 μg/mL, 0.06 μg/mL and 0.03 μg/mL. The total volume of each well on the assay plate was 200 μL: containing 1% DMSO, about 5×10^5 CFU/mL of aerobic bacteria and about 1×10^6 CFU/mL of anaerobic bacteria.
All assay plates for aerobic bacteria were aerobically cultured at 35+/−2° C. for 16 to 20 hours, and all assay plates for anaerobic bacteria were anaerobically cultured in an anaerobic incubator at 35+/−2° C. for 48 hours.

For assay [2], the system named is IL-6. Description: Acne model in mice: IL-6 level in left ear tissue. Format: in vivo, Balb/C mice. Here is the method: Experimental strain: Propionibacterium acnes ATCC 6919 (Beijing Biobw Biotechnology Co., Ltd.) Experimental animals: Balb/C mice (Zhejiang Vital River Laboratory Animal Technology Co., Ltd.) Balb/C mice were grouped and numbered, and adaptively fed for one week. On the day of modeling, Propionibacterium acnes was taken, and OD600 was measured using a microplate reader. BH1 culture medium was diluted to OD600=1 (about 5×10^8 CFU/mL), centrifuged to discard supernatant, and the remaining culture was diluted to 1×10^8 CFU/mL with PBS. Once the molding began, the mice were anesthetized with a small animal anesthesia machine, the air flow and isoflurane content of the anesthesia machine were adjusted, and the mice were placed in an anesthesia induction chamber for anesthesia induction. […] Mouse BCA protein detection: after Propionibacterium acnes was injected for 48 hours, the BCA protein detection was detected by using the BCA protein concentration assay kit. The left ear of mouse was homogenized with 1 mL of PBS and the dilution factor equivalent to a mass volume ratio of 1:9 was calculated, then centrifuged at 1500 g for 10 minutes. […] […] was measured with a microplate reader, the standard curves were plotted, and the BCA concentrations were calculated. […]

For `CN(C)c1cc2c(cn1)-c1ccc3c(=O)c(C(=O)O)cn(C4CC4)c3c1COC2` [Compound 6], in assay [1], the MIC came out at 0.06 µg/mL (≈ 0.153 µM). Further, the “IL-6 Mean ± SD” value in assay [2] (Balb/C mice, left ear homogenate, 48 hours after injection of Propionibacterium acnes, 15 μL applied at 4, 20, 28, 44 hours, drugs as hydrochloride) came to 322.4 ± 43.33 pg/mg. In addition, the “IL-6 content in the left ear tissues of mice after treatment” value in assay [2] (compared with acne model group, p<0.001, in words) is “significantly reduced”.
